Measurements from patent US20090270373A1, “TREATMENT OF DOWN SYNDROM WITH BENZODIAZEPINE RECEPTOR ANTAGONISTS” (Cypress Biosciences, Inc., priority 2008, published 2009).

Assays:
[1] = of the intravenous bioavailability; cited from earlier work
Ts65Dn mice [2] = format: in vivo, mouse
Method: (§1) A 4-week longitudinal crossover study is carried out following the method outlined by Fernandez et al., supra. Wild-type and Ts65Dn mice (3-4 months of age) are randomly assigned to groups receiving daily i.p. injections of saline or flumazenil (1.0 mg/kg), and are submitted to four weekly repetitions of object recognition testing, in which the animals are serially presented with four different object sets. At the 2-week midpoint of the experimental period, wild-type and Ts65Dn mice that have been receiving saline are randomly segregated into groups that either continue to receive daily saline injections or begin to receive daily injections of flumazenil. Conversely, wild-type and Ts65Dn mice that have been chronically administered flumazenil in the first 2 weeks of testing are switched onto a saline regimen. Alongside saline and flumazenil, bilobalide (i.p. 5.0 mg/kg) may be evaluated as a positive control. Bilobalide is a picrotoxin-like compound that may safely be administered for the whole 4-week experiment.
(§2) Flumazenil may also be tested for its effects on declarative memory in the novel object recognition test and in a modified spontaneous alternation task. Wild-type and Ts65Dn mice may be administered flumazenil (3 mg/kg in milk via voluntary oral feeding or 1 mg/kg i.p.). The wild-type and Ts65Dn mice are administered from 5 to 30 doses of milk or milk-flumazenil (or saline or flumazenil solution i.p.). The mice are then subjected to two repetitions of novel object recognition testing or three daily T-maze sessions at the tail end of the treatment regimen. […] Comparison of treated and untreated Ts65Dn mice will provide controls for any possible arm bias in the spontaneous alternation task.
as §1, with “bretazenil” for “flumazenil”, “bretazenil.” for “flumazenil.”, “bretazenil,” for “flumazenil,”
as §2, with “Bretazenil may” for “Flumazenil may”, “administered bretazenil” for “administered flumazenil”

Down Syndrome patients = assay: Cognition in Down Syndrome patients, double-blind cross-over (Example 3); format: in vivo, human; details: 5 and 20 mg
Method: Fifteen adult or adolescent Down Syndrome patients experiencing at least some level of cognitive impairment participate in a double-blind, cross-over comparison of […]. The drugs administered are flumazenil (5 and 20 mg), bretazenil (5 and 20 mg) or placebo. Subjects are randomly assigned to treatments according to a Williams Square design (Higgitt, supra (citing Williams, “Experimental designs balanced for the estimation of residual effects of treatments, Aust. J. Sci. Res. 2:149-168 (1949))). Each subject receives a different sequence of four treatments balanced for carry-over effects and separated by at least 1 week of wash-out period. […]
Psychophysiological indices to be measured include: EEG, skin conductance, finger tremor, critical flicker fusion threshold, blood pressure and pulse rate, key tapping rate, and reaction time. […]
EEG and evoked responses: These are recorded during the same EEG recording procedure. […] In addition, the four values are summed and each is expressed as a percentage of the total.
The averaged evoked responses are obtained from the 500 ms epoch of the EEG following each of the 32 click stimuli. […] The latency at each peak and peak-to-peak amplitudes are computed and recorded automatically. […]
Skin conductance, blood pressure and pulse rate can be measured by the method of Higgitt et al., supra. […]

Ts65Dn mice [3] = assay: Long-term potentiation (LTP) in the dentate gyrus of Ts65Dn mice (paper Examples 1 and 2); format: in vivo, mouse; details: about 1 month after cessation of drug treatment
Text: Since the ability of animals to learn and remember is thought to be encoded at the synaptic level, and involves the ability of synapses to undergo long-term changes in synapse strength, long-term potentiation (LTP) in the dentate gyrus may be evaluated.

Structure (SMILES): CCOC(=O)c1ncn2c1CN(C)C(=O)c1cc(F)ccc1-2 [flumazenil, 8-fluoro-5,6-dihydro-5-methyl-6-oxo-4H-imidazo[1,5-a]benzodiazepine-3-carboxylic acid ethyl ester]
- oral bioavailability [1]: approximately 20%
- object recognition performance (Ts65Dn mice [2]; 4-week crossover, flumazenil or bretazenil 1.0 mg/kg i.p. for 2 weeks, bilobalide 5.0 mg/kg i.p. throughout): normalized object recognition performance
- discrimination indices in the object recognition task (Ts65Dn mice [2]; 5 to 30 doses, 3 mg/kg in milk orally or 1 mg/kg i.p.): on a par with those of wild-type mice
- novel object recognition testing, long term (Ts65Dn mice [2]; up to at least 2 months after treatment, treated for at least about 15 days): long-term improvement
- indicators of cognition as compared to placebo (Down Syndrome patients): improvement in one or more indicators of cognition
- LTP in the dentate gyrus (Ts65Dn mice [3]): Normalized LTP
